Target: T1, human GLP-1R (Homo sapiens, UniProt P43220)
T1 construct: expressed in transfected cells; host or cells: PEAK RAPID-derived Gα15-trans48 LD stably expressing cells (PRG48), transiently transfected with Lipofectamine 2000
Assay: GLP-1 receptor in vitro calcium assay (intracellular free calcium concentration change induced via GLP-1 receptor)
Assay type: cell-based
Settings: for EC50: PRG48 cells transfected with human GLP-1R, compound added with 250 pM GLP-1, Ca2+ response ΔF/F, read-out: Ca EC50 value; for GLP-1 receptor action enhancing activity (vs BETP): intensity compared to BETP, activity of BETP as 1
Protocol: The supernatant was removed by centrifugation (1,200 rpm, 3 min), and the cells were suspended at 4×10^6 cells/mL in 5% FBS DMEM/Ham's F-12. 1.0 mL thereof was seeded in a 15 cm dish and cultured (37° C., 5% CO2) overnight. The next day, the medium of the cultured PRG48 cells was replaced with 5% FBS DMEM/Ham's F-12 medium (30 mL), human GLP-1R gene mixture solution (GLP-1R/pc.DNA3.1(+) 60 μg) prepared using 6.0 mL of Opti-MEM (invitrogen) and 120 μL of Lipofectamin 2000 (invitrogen) was slowly added to the cells, and cultured (37° C., 5% CO2) for 6 hr to introduce the gene. […] The cells were counted, suspended at 0.5×10^6 cells/mL in 5% FBS DMEM/Ham's F-12 medium, and seeded in each well of D-Lysine coat 96 well plate (BD Bioscience) at 7.0×10^4 cells. After static adhesion at room temperature for 1 hr, the cells were cultured overnight (37° C., 5% CO2). The medium in the Cultured 96 well was entirely discarded, 150 μL of intracellular calcium measurement staining solution Calcium assay kit Express (Molecular Device) diluted 80-fold with Assay buffer (20 mM HEPES, 146 mM NaCl, 1 mM MgSO4, 1.39 mM glucose, 1 mM CaCl2, 2.5 mM Probenecid, 0.05% Casein Enzymatic Hydrolysate) was added, and the mixture was stood at 37° C. for 30 min, and then at room temperature for 45 min to perform staining. After staining, 250 pM GLP-1 and the compound were added and Ca^2+ response was observed by using FDSSμCELL (Hamamatsu Photonics K.K.). Each evaluation compound was dissolved in DMSO, further diluted with Assay buffer and used.
For evaluation, the fluorescence values (Ex480:Em540) before and after addition were measured, and changes in the intracellular free calcium concentration produced via GLP-1R receptor by the addition were quantitatively examined. For the measurement and analysis of the fluorescence values, a soft (FDSS7000EX) attached to the FDSSμCELL was used, and ΔF/F value ((maximum fluorescence value after stimulation−minimum fluorescence value after stimulation)/fluorescence value before stimulation) was calculated. Using the obtained ΔF/F values, EC50 value was calculated by Prism5.

T1 sequence (P43220 24-463): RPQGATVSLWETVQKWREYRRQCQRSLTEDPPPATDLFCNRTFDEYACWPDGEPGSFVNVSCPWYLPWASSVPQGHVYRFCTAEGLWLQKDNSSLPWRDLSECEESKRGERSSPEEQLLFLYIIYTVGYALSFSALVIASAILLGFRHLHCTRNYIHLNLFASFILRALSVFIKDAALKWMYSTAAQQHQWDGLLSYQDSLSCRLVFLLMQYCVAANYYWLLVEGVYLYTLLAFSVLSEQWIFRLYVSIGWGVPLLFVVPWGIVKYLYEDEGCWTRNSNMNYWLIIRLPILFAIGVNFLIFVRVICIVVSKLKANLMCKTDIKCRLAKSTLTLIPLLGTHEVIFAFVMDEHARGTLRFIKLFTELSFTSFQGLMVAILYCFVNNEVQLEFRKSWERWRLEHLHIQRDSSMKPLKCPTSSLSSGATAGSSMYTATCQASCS

SMILES | EC50 [nM] | GLP-1 receptor action enhancing activity (vs BETP)
CCCCCCCCNC(=O)[C@@H](Cc1ccccc1)NC(=O)Nc1ccc(NS(=O)(=O)c2ccc(C)cc2)cc1 [Compound 5] | 51 | 490
CCCCCC(C)NC(=O)[C@@H](Cc1ccccc1)NC(=O)Nc1ccc(NS(=O)(=O)c2ccc(C)cc2)cc1 (stereo partly drawn) [Compound 54] | 180 | 137
CC(C)(C)OC(=O)[C@H](Cc1ccccc1)NC(=O)Nc1ccc(NS(=O)(=O)Cc2ccccc2)cc1 [Compound 74] | 1900 | 14
CCCc1ccc(S(=O)(=O)Nc2ccc(NC(=O)N[C@@H](Cc3ccccc3)C(=O)OC(C)(C)C)cc2)cc1 [Compound 71] | 400 | 64
CCCCC(CC)CNC(=O)[C@@H](Cc1ccccc1)NC(=O)Nc1ccc(NS(=O)(=O)c2ccc(C)cc2)cc1 (stereo partly drawn) [Compound 34] | 64 | 391
Cc1ccc(S(=O)(=O)Nc2ccc(NC(=O)N[C@H](Cc3ccc(Cl)cc3)C(=O)NC3CCCCCC3)cc2)cc1 [Compound 42] | 92 | 
Cc1ccc(S(=O)(=O)Nc2ccc(NC(=O)N[C@@H](Cc3c[nH]c4ccccc34)C(=O)OC(C)(C)C)cc2)cc1 [Compound 67] | 660 | 38
CCCCCCNC(=O)[C@@H](CC(C)C)NC(=O)Nc1ccc(NS(=O)(=O)c2ccc(C)cc2)cc1 [Compound 11] | 490 | 52
CCCOc1ccc(-c2noc([C@H](Cc3ccccc3)NC(=O)Nc3ccc(NS(=O)(=O)c4ccc(C)cc4)cc3)n2)cc1 [Compound 69] | 24 | 1068
COc1ccc(CNC(=O)[C@@H](Cc2ccccc2)NC(=O)Nc2ccc(NS(=O)(=O)c3ccc(C)cc3)cc2)cc1 [Compound 25] | 1400 | 18
Cc1ccc(S(=O)(=O)Nc2ccc(NC(=O)N[C@H](Cc3ccccc3)C(=O)NC[C@H]3CCC4CC3C4(C)C)cc2)cc1 (stereo partly drawn) [Compound 60] | 45 | 560
Cc1ccc(S(=O)(=O)Nc2ccc(NC(=O)N[C@@H](Cc3ccc(OC(C)(C)C)cc3)C(=O)OC(C)(C)C)cc2)cc1 [Compound 66] | 740 | 34
CCc1ccc(S(=O)(=O)Nc2ccc(NC(=O)N[C@@H](Cc3ccccc3)C(=O)OC(C)(C)C)cc2)cc1 [Compound 75] | 620 | 41
CC(C)(C)OC(=O)[C@H](Cc1ccccc1)NC(=O)Nc1ccc(NS(=O)(=O)c2ccc(C(C)(C)C)cc2)cc1 [Compound 73] | 310 | 83
Cc1ccc(S(=O)(=O)Nc2ccc(NC(=O)N[C@H](CC3CCCCC3)C(=O)NCCC3CCCCC3)cc2)cc1 [Compound 45] | 22 | 1149
CCCCCNC(=O)[C@@H](Cc1ccccc1)NC(=O)Nc1ccc(NS(=O)(=O)c2ccc(C)cc2)cc1 [Compound 35] | 660 | 38
Cc1ccc(S(=O)(=O)Nc2ccc(NC(=O)N[C@H](CC(C)C)C(=O)NC3CCCCCC3)cc2)cc1 [Compound 44] | 1300 | 19
CCCCC(CC)CNC(=O)[C@@H](Cc1c[nH]c2ccccc12)NC(=O)Nc1ccc(NS(=O)(=O)c2ccc(C)cc2)cc1 (stereo partly drawn) [Compound 40] | 130 | 199
CCCCCCNC(=O)[C@@H](CCCC)NC(=O)Nc1ccc(NS(=O)(=O)c2ccc(C)cc2)cc1 [Compound 16] | 520 | 49

More lines, now with the values ahead:

EC50 [nM] | GLP-1 receptor action enhancing activity (vs BETP) | SMILES
7 | 3578 | CCCCCCCN(C(=O)N[C@H](Cc1ccccc1)C(=O)OC(C)(C)C)c1ccc(NS(=O)(=O)c2ccc(C)cc2)cc1 [Compound 85, tert-butyl (2R)-2-({heptyl-[4-(p-tolylsulfonylamino)phenyl]carbamoyl}amino)-3-phenyl-propanoate]
11 | 2206 | CSCCCN(c1ccc(NC(=O)N[C@H](Cc2c[nH]c3ccccc23)C(=O)NC(C)CCCC(C)C)cc1)S(=O)(=O)c1ccc(C(C)(C)C)cc1 (stereo partly drawn) [Compound 112]
1600 | 16 | Cc1ccc(S(=O)(=O)Nc2ccc(NC(=O)N[C@H](CC(=O)OC(C)(C)C)Cc3ccccc3)cc2)cc1 [Compound 76]
130 | 195 | CC(C)CCCC(C)NC(=O)[C@@H](Cc1cccnc1)NC(=O)Nc1cccc(NS(=O)(=O)c2ccc(C(C)(C)C)cc2)c1 (stereo partly drawn) [Compound 103]
1500 | 17 | Cc1ccc(S(=O)(=O)Nc2cccc(NC(=O)N[C@@H](Cc3ccccc3)C(=O)OC(C)(C)C)c2)cc1 [Compound 79]
50 | 503 | CCCCC(CC)CNC(=O)[C@@H](CC1CCCCC1)NC(=O)Nc1ccc(N2CCOCC2)c(NS(=O)(=O)c2ccc(C(C)(C)C)cc2)c1 (stereo partly drawn) [Compound 100, (2R)-2-({3-[(4-tert-butylphenyl)sulfonylamino]-4-morpholino-phenyl}carbamoylamino)-3-cyclohexyl-N-(2-ethylhexyl)propanamide]
250 | 101 | CCCCCCNC(=O)[C@@H](Cc1c[nH]c2ccccc12)NC(=O)Nc1cccc(NS(=O)(=O)c2ccc(C(C)(C)C)cc2)c1 [Compound 95]
1.5 | 17107 | CC(C)CCCC(C)NC(=O)[C@@H](CC1CCCCC1)NC(=O)N(CC(=O)O)c1ccc(NS(=O)(=O)c2ccc(C(C)(C)C)cc2)cc1 (stereo partly drawn) [Compound 108, 2-(4-[(4-tert-butylphenyl)sulfonylamino]-N-{[(1R)-1-(cyclohexylmethyl)-2-(1,5-dimethylhexylamino)-2-oxo-ethyl]carbamoyl}anilino)acetic acid]
20 | 1272 | CCCCC(CC)CNC(=O)[C@@H](CC1CCCCC1)NC(=O)N(CC(=O)O)c1ccc(NS(=O)(=O)c2ccc(C(C)(C)C)cc2)cc1 (stereo partly drawn) [Compound 101]
28 | 898 | CCCCCCNc1ccc(S(=O)(=O)Nc2cccc(NC(=O)N[C@H](CC3CCCCC3)C(=O)NCCCSC)c2)cn1 [Compound 113]
3.3 | 7694 | CCCCC(CC)CNC(=O)[C@@H](CC1CCCCC1)NC(=O)Nc1ccc(N(CCCSC)S(=O)(=O)c2ccc(C(C)(C)C)cc2)cc1 (stereo partly drawn) [Compound 111]
56 | 446 | CSCCCNC(=O)[C@@H](CC1CCCCC1)NC(=O)Nc1ccc(NS(=O)(=O)c2ccc(C(C)(C)C)cc2)cc1 [Compound 91]
45 | 555 | CCCCCCNC(=O)[C@@H](CC1CCCCC1)NC(=O)Nc1cccc(NS(=O)(=O)c2ccc(C(C)(C)C)cc2)c1 [Compound 93]

From patent US20190022039A1, “COMPOUND HAVING ENHANCING ACTIVITY FOR GLUCAGON-LIKE PEPTIDE-1 RECEPTOR ACTIONS” (AJINOMOTO CO., INC., priority 2016, published 2019)
